Measured values published in ChEMBL document CHEMBL4052780, “Novel 1,2-dihydroquinazolin-2-ones: Design, synthesis, and biological evaluation against Trypanosoma brucei” (Bioorg Med Chem Lett, 2017).
In brackets after ≈: the same amount, converted by molar mass.

Experiments:
Trypanosoma cruzi = assay: Antitrypanosomal activity against Trypanosoma cruzi Tulahuen C4 amastigotes infected in rat L6 cells after 96 hrs by beta-galactosidase reporter gene assay; assay type: functional, cell-based; conditions: Tulahuen C4, L6, 96 h
Leishmania donovani = assay: Antileishmanial activity against intracellular […] stage of Leishmania donovani MHOM/ET/67/HU3 infected in human THP1 cells measured after 72 hrs by luciferase reporter gene assay; assay type: functional, cell-based; conditions: MHOM/ET/67/HU3, THP-1, 72 h
[1] = tested on: Trypanosoma brucei brucei; assay: Antitrypanosomal activity against bloodstream form of Trypanosoma brucei brucei Lister 427 after 72 hrs by resazurin based fluorescence assay; assay type: functional; conditions: Lister 427, 72 h
[2] = Cytotoxicity against human MRC5 SV2 cells after 48 hrs by resazurin based fluorescence assay; assay type: cell-based; conditions: MRC-5 SV2, 48 h
L6 = assay: Cytotoxicity against rat L6 cells assessed as reduction in cell viability after 72 hrs by resazurin based fluorescence assay; conditions: L6, 72 h
[3] = Kinetic aqueous solubility of the compound by CLND method; assay type: physicochemical; conditions: read-out: Kinetic_solubility
THP-1 = assay: Cytotoxicity against human THP1 cells assessed as reduction in cell viability after 72 hrs by MTT assay; assay type: cell-based; conditions: THP-1, 72 h
Liver = assay: Intrinsic clearance in human liver microsomes; assay type: ADME, microsome
[4] = Intrinsic clearance in rat hepatocytes assessed per million cells; assay type: ADME, cell-based, Hepatocyte
[5] = Lipophilicity, log D of the compound at pH 7.4; assay type: physicochemical; conditions: buffer
[6] = tested on: Trypanosoma brucei brucei; assay: Antitrypanosomal activity against bloodstream form of Trypanosoma brucei brucei Lister 427 after 70 hrs by resazurin based fluorescence assay; assay type: functional; conditions: Lister 427, 70 h

EC50 (Trypanosoma cruzi) [µM] | EC50 (Leishmania donovani) [µM] | EC50 [1] [µM] | solubility kinetic [3] [µM] | CLH (Liver) [µL/min/mg] | CLH [4] [µL/min] | logD [5] | EC50 [6] [nM] | SMILES | EC50 [2] [µM] | EC50 (L6) [µM] | EC50 (THP-1) [µM]
> 20 | > 5 | > 40 | 80 (≈ 18.9 µg/mL) |  |  |  |  | Cc1ccc2[nH]c(=O)nc(-c3ccccc3)c2c1 | > 50 | > 50 | > 50
> 20 | > 5 | 14.2 |  |  |  |  |  | O=c1nc(-c2ccccc2)c2ccc(-c3ccncc3)cc2[nH]1 | > 50 |  | > 50
15.1 | > 5 | 5.17 |  |  |  |  |  | O=c1nc(-c2ccccc2)c2cc(-c3cccc(N4CCOCC4)c3)ccc2[nH]1 | > 50 | > 50 | > 50
8.33 | > 5 | 1.44 |  |  |  |  |  | O=c1nc(-c2ccccc2)c2cc(-c3cn[nH]c3)ccc2[nH]1 | 22 | > 50 | > 50
> 20 | > 5 | 14.1 | 324 (≈ 99.6 µg/mL) |  |  |  |  | O=c1nc(-c2ccccc2)c2cc(N3CCOCC3)ccc2[nH]1 | > 50 | > 50 | > 50
7.19 | > 5 | 1.73 |  |  |  |  |  | O=c1nc(-c2ccccc2)c2cc(-c3cnc4ccccc4c3)ccc2[nH]1 | > 50 | > 16 | > 50
> 20 | > 5 | > 40 |  |  |  |  |  | O=c1nc(-c2ccccc2)c2ccc(-c3cncnc3)cc2[nH]1 | > 50 |  | > 50
20 | > 5 | 5.76 | 5 (≈ 1.47 µg/mL) |  |  |  |  | O=c1nc(C2CCCCC2)c2cc(-c3cc[nH]n3)ccc2[nH]1 | > 50 | > 50 | > 50
8.63 | > 5 | 3.71 |  |  |  |  |  | O=c1nc(-c2ccccc2)c2cc(-c3ccccc3F)ccc2[nH]1 | > 50 | 55.8 | 50
8.94 | > 5 | 5.07 |  |  |  |  |  | Cc1ccncc1-c1ccc2[nH]c(=O)nc(-c3ccccc3)c2c1 | > 50 | > 50 | > 50
> 20 | > 5 | > 40 |  |  |  |  |  | N#Cc1ccc(-c2cccc3[nH]c(=O)nc(-c4ccccc4)c23)cc1 | > 50 | > 50 | > 50
17.4 | > 5 | 1.71 |  |  |  |  |  | N#Cc1ccc(-c2ccc3[nH]c(=O)nc(-c4ccccc4)c3c2)cc1 | > 50 | > 50 | > 50
16.8 | > 5 | 5.32 |  |  |  |  |  | Cc1cc(-c2ccc3[nH]c(=O)nc(-c4ccccc4)c3c2)ccn1 | > 50 | > 50 | > 50
11.9 | > 5 | 2.13 |  |  |  |  |  | Cc1noc(C)c1-c1ccc2[nH]c(=O)nc(-c3ccccc3)c2c1 | > 50 | > 50 | > 50
> 20 | > 5 | 4.65 |  |  |  |  |  | O=c1nc(-c2ccccc2)c2ccc(-c3ccc(F)cc3)cc2[nH]1 | > 50 |  | > 50
14 | > 5 | 2.04 |  |  |  |  |  | CN(C)c1ccc(-c2ccc3[nH]c(=O)nc(-c4ccccc4)c3c2)cn1 | > 50 | 50 | > 50
8.3 | > 5 | 2.17 |  |  |  |  |  | O=c1nc(-c2ccccc2)c2cc(-c3ccc(N4CCOCC4)cc3)ccc2[nH]1 | 23.8 | 22.7 | > 50
9.48 | > 5 | 4.29 |  |  |  |  |  | O=c1nc(-c2ccccc2)c2cc(-c3cccc(F)c3)ccc2[nH]1 | > 50 | 23 | > 50
14.8 | > 5 | 5.29 |  |  |  |  |  | Cc1ccc(-c2ccc3[nH]c(=O)nc(-c4ccccc4)c3c2)cn1 | > 50 | > 50 | > 50

EC50 (Trypanosoma cruzi) [µM] | EC50 (Leishmania donovani) [µM] | EC50 [1] [µM] | solubility kinetic [3] [µM] | CLH (Liver) [µL/min/mg] | CLH [4] [µL/min] | logD [5] | EC50 [6] [nM] | SMILES | EC50 [2] [µM] | EC50 (L6) [µM] | EC50 (THP-1) [µM]
> 20 | > 5 | 5.6 |  |  |  |  |  | Cn1cc(-c2ccc3[nH]c(=O)nc(-c4ccccc4)c3c2)cn1 | > 50 | > 50 | > 50
> 20 | > 5 | 4.87 |  |  |  |  |  | O=c1nc(-c2ccccc2)c2ccc(-c3cccc(N4CCOCC4)c3)cc2[nH]1 | > 50 | 4.53 | > 50
20 | > 5 | 29 |  |  |  |  |  | COc1ccccc1-c1nc(=O)[nH]c2ccc(-c3cc[nH]n3)cc12 | > 50 | > 50 | > 50
> 20 | > 5 | 4.88 |  |  |  |  |  | O=c1nc(-c2ccccc2)c2cc(-c3ccccc3)ccc2[nH]1 | > 50 | > 50 | > 50
9.56 | > 5 | 5.24 |  |  |  |  |  | Cc1cncc(-c2ccc3[nH]c(=O)nc(-c4ccccc4)c3c2)c1 | > 50 | > 50 | > 50
6.29 | > 5 | 1.77 |  |  |  |  |  | O=c1nc(-c2ccccc2)c2cc(-c3ccc(N4CCCC4)nc3)ccc2[nH]1 | > 50 | > 50 | > 50
13.3 | > 5 | 1.04 | 8 (≈ 2.31 µg/mL) | 19 | < 1 | 2.2 |  | O=c1nc(-c2ccccc2)c2cc(-c3cc[nH]n3)ccc2[nH]1 | > 50 | > 50 | > 50
5.28 | > 5 | 3.14 | 13 (≈ 3.93 µg/mL) |  |  |  |  | Cc1ccccc1-c1nc(=O)[nH]c2ccc(-c3cc[nH]n3)cc12 | > 50 | > 50 | > 50
> 20 | > 5 | > 40 |  |  |  |  |  | O=c1nc(-c2ccccc2)c2ccc(-c3cccnc3)cc2[nH]1 | > 50 | 7.73 | > 50
> 20 | > 5 | 5.7 |  |  |  |  |  | CNC(=O)c1cccc(-c2ccc3[nH]c(=O)nc(-c4ccccc4)c3c2)c1 | > 50 | > 50 | > 50
10.9 | > 5 | 1.89 |  |  |  |  | 840 | O=c1nc(-c2ccccc2)c2cc(-c3ccncc3)ccc2[nH]1 | > 50 | > 50 | 
> 20 | > 5 | 10 |  |  |  |  |  | O=c1nc(-c2ccccc2)c2cc(-c3cncnc3)ccc2[nH]1 | > 50 | > 50 | > 50
> 20 | > 5 | > 40 |  |  |  |  |  | Cn1ccc(-c2cccc3[nH]c(=O)nc(-c4ccccc4)c23)n1 | > 50 | > 50 | > 50
16.9 | > 5 | 5.95 | 74 (≈ 19.7 µg/mL) |  |  | 2.3 |  | O=c1nc(C2CCC2)c2cc(-c3cc[nH]n3)ccc2[nH]1 | > 50 | > 50 | > 50
18.4 | > 5 | 5.21 |  |  |  |  |  | O=c1nc(-c2ccccc2)c2cc(-c3ccc(C(F)(F)F)nc3)ccc2[nH]1 | > 50 | > 50 | > 50
17.4 | > 5 | 5.96 |  |  |  |  |  | Cn1nccc1-c1ccc2[nH]c(=O)nc(-c3ccccc3)c2c1 | > 50 | > 50 | > 50
8.73 | > 5 | 3.88 |  |  |  |  |  | O=c1nc(-c2ccccc2)c2cc(-c3ccc(F)cc3)ccc2[nH]1 | > 50 | 50 | > 50
15.8 | > 5 | 5.35 |  |  |  |  |  | O=c1nc(-c2ccccc2)c2cc(-c3cccnc3)ccc2[nH]1 | > 50 | > 50 | > 50

SMILES | EC50 (Trypanosoma cruzi) [µM] | EC50 (Leishmania donovani) [µM] | EC50 [1] [µM] | solubility kinetic [3] [µM] | CLH (Liver) [µL/min/mg] | CLH [4] [µL/min] | logD [5] | EC50 [6] [nM] | EC50 [2] [µM] | EC50 (L6) [µM] | EC50 (THP-1) [µM]
O=c1nc(-c2ccccc2)c2cc(N3CCNCC3)ccc2[nH]1 | > 10 | > 2.5 | > 20 | > 1000 |  |  |  |  | > 25 | > 25 | > 25
CN1CCN(c2ccc3[nH]c(=O)nc(-c4ccccc4)c3c2)CC1 | > 20 | > 5 | > 40 | > 1000 |  |  |  |  | > 50 | > 50 | > 50
